{"source": "paper PMC6321321", "about": "(Pharmaceutics, 2018)", "key": {"Caco-2 cell monolayers [1]": {"tested_on": "Caco-2 cell monolayers", "assay": "TEER measurement of Caco-2 monolayer", "assay_type": "cell-based, human", "details": "37 °C, N=3", "experimental": "In preparation for the assays, the cell membranes were allowed to equilibrate for 30 min in transport buffer; HBSS (pH 7.4) with 0.001% MC was added to the apical (0.5 mL) and basal (1.5 mL) chambers of the transwell.\nThe TEER of the Caco-2 monolayer was measured to confirm cell growth and differentiation on the insert filter of the transwell using a Millicell ERS-2 (Millipore Corp., Bedford, MA, USA). Before seeding the Caco-2 cells, the electrical resistance of the insert filter in the medium was measured and subtracted from the total electrical resistance determined for the monolayer to calculate the intrinsic TEER of the monolayer. The TEER of the monolayer was measured at the end of the 2 h incubation to detect any negative effects of the applied L-tryptophan on the intercellular tight junctions. The TEER is expressed as a percentage calculated by dividing the TEER value (Ω cm^2) at 2 h by the initial value."}, "rat ileal segments": {"tested_on": "rat ileal segments", "assay": "In situ LDH leakage from rat ileal segments", "assay_type": "in vivo", "details": "rat ileal loop; insulin 50 IU/kg with L-tryptophan 16 and 32 mM; fluid collected 60 min after administration; N=3; positive control 5% sodium taurodeoxycholate", "protocol": "(§2) To assess the cytotoxic effects of L-tryptophan, the integrity of the cell membrane after treatment with the CPPs was examined by measuring the lactate dehydrogenase (LDH) released from the cytoplasm under both in vitro and in situ conditions.\nFor the trial with the highest concentration of L-tryptophan (50 mM), L-arginine (40 mM) was added as a solubilizing agent. For this test, 5% sodium taurodeoxycholate was used as a positive control. At 60 min after administration, the ileal loop was washed with 5.0 mL of PBS and then intestinal fluid was collected. After adjusting the collected intestinal fluid to a total volume of 6.0 mL with PBS, the activity of LDH (Unit) leaked into the intestinal fluid was determined using an LDH kit (Promega Corp.)."}, "Caco-2 cells [2]": {"tested_on": "Caco-2 cells", "assay": "In vitro LDH leakage", "assay_type": "cell-based, human", "details": "HBSS pH 7.4 with 0.001% MC, 300–2400 μM, 120 min, 37 °C, relative to 0.8% Triton X-100, N=3", "protocol": "as §2\nIn the in vitro assay, the Caco-2 cells were grown in 24-well plates with a 1.88 cm^2 culture area (Nippon Becton Dickinson) at the density of 1.0 × 10^5 cells/cm^2 and then grown in completed DMEM for 3 or 4 days. Before the addition of L-tryptophan, cell membranes were allowed to equilibrate in 0.5 mL of assay buffer for 30 min. HBSS containing 0.001% MC (pH 7.4) was added to the wells as the transport buffer. After a 30 min pre-incubation with transport buffer, the assay was initiated by replacing 50 μL of transport buffer with 50 μL of L-tryptophan stock solution (ten times concentration) or transport buffer. […] The incubation buffer was collected and LDH released from the cytoplasm into the incubation buffer was determined using a CytoTox 96 Non-Radioactive Cytotoxicity Assay kit (Promega Corp., Madison, WI, USA). Cytotoxicity was expressed as the percentage calculated by dividing the absorbance of the vehicle (HBSS) or the L-tryptophan-treated sample by that of a sample treated with 0.8% Triton X-100, according to the instructions of assay kit."}, "[3]": {"assay": "In vivo oral administration study, blood glucose levels", "details": "mice fasted 24 h; oral gavage insulin 50 IU/kg with L-tryptophan 32 mM (100 μL); blood glucose 0-360 min; N=6-8", "protocol": "Blood glucose levels were measured (One Touch Ultra View, Johnson & Johnson K.K., Tokyo, Japan) by collection of blood (one drop) from a small cut in the tail vein at t = 0 (prior to dosing), 15, 30, 60, 120, 180, 240, 300 and 360 min after administration. Blood glucose levels are depicted as percentage of the initial value in same mouse. Mice were trained with oral dosing and tail cutting at 24 h and 60 min prior to actual drug administration to avoid the unexpected elevation of blood glucose levels during experiments."}, "Caco-2 cells [4]": {"tested_on": "Caco-2 cells", "assay": "Cell viability assay (WST-8, CCK-8)", "assay_type": "cell-based, human", "details": "completed DMEM, 600–2400 μM, 2 h then 3 h with CCK-8, N=6-11", "protocol": "To examine the cellular viability of Caco-2 cells exposed to L-tryptophan, a WST-8 assay was performed with Cell Counting Kit-8 (CCK-8, Dojindo Laboratories, Kumamoto, Japan). The Caco-2 cells were grown in 96-well plates with a 0.33 cm^2 culture area (Nippon Becton Dickinson) to a density of 3.0 × 10^4 cells/cm^2 and then grown in 100 μL of completed DMEM for 3 or 4 days. In this assay, the completed DMEM was used in place of the incubation buffer to prevent the possible loss of cell viability during total 5 h incubation in HBSS. First, 10 μL of L-tryptophan stock solution (eleven times concentration) or transport buffer was added to 100 μL of completed DMEM and the cells were incubated with various concentrations of L-tryptophan (600–2400 μM) for 2 h. Then, 10 μL of CCK-8 reagent was added to the wells and the cells were incubated for an additional 3 h to allow for the reductive reaction of WST-8. The resulting absorbances of the incubated solution in the wells were read with a microplate reader (Synergy HT, BioTek Instruments Inc.) at a wavelength of 450 nm. In this assay, 0.8% of Triton X-100 was used as a positive control, same as the LDH assay."}, "insulin": {"target": "T1, insulin (Homo sapiens, UniProt P01308)", "T1 construct": "purchased Wako Pure Chemical Industries, Ltd. (Osaka, Japan)", "T1 sequence (P01308 25-54 limits assumed)": "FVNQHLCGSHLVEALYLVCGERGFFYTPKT", "T1 sequence (P01308 90-110 limits assumed)": "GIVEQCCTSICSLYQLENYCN", "assay": "SPR-based binding assay on immobilized insulin", "experimental": "Reference surfaces were prepared by amine coupling activation followed by immediate deactivation. […] At the end of each cycle, the surface was regenerated by a 30 s injection of 1 M NaCl. […] Each sensorgram was determined by subtracting nonspecific binding on the surface of the reference flow cell from total binding on the immobilized-insulin surface."}, "Caco-2 cell monolayers [5]": {"tested_on": "Caco-2 cell monolayers", "details": "9.6 mM (equivalent to 4.2 mg/kg in the animal study) added to transwell; cited from earlier work"}, "[6]": {"details": "insulin co-administered with additive at 40 mM; cited from earlier work"}, "[7]": {"assay": "In situ closed ileum loop absorption of dextrans and peptide drugs with or without L-tryptophan", "experimental": "Additional i.p. injections of sodium pentobarbital (12.5 mg/kg) were administered every 1 h to maintain anesthesia. The ileum was exposed following a small midline incision made carefully in the abdomen. Its proximal to ileocecal junction segments (length = 10 cm) were cannulated at both ends using polypropylene tubing and ligated securely to prevent fluid loss. To wash out the intestinal contents, PBS warmed to 37 °C was circulated through the cannula at 5.0 mL/min for 4 min using an infusion pump. The cannulation tubing was removed, the segments were closed tightly and returned carefully to their original location inside the peritoneal cavity. Rats were kept on the board at 37 °C for an additional 30 min to calm biological reactions such as elevated blood glucose levels resulting from the stress imposed by surgery. […] To examine dose dependency, the final concentrations of tryptophan were adjusted to 4, 8, 16 and 32 mM. […]\n(§1) During the experiment, 0.25 mL blood aliquots were taken from the jugular vein at 0, 5, 10, 15, 30, 60, 120 and 180 min after dosing. […] The plasma concentrations of FDs were measured with a microplate fluorimeter (Synergy HT, BioTek Instruments Inc., Winooski, VT, USA) at excitation and emission wavelengths of 485 and 528 nm, respectively."}, "[8]": {"assay": "In situ closed ileum loop administration study: insulin co-administered with additives", "details": "in situ rat ileal loop; for Effect on the intestinal absorption of insulin (in words): insulin 50 IU/kg co-administered with additive at 32 mM, N=3-8", "experimental": "Additional i.p. injections of sodium pentobarbital (12.5 mg/kg) were administered every 1 h to maintain anesthesia. The ileum was exposed following a small midline incision made carefully in the abdomen. Its proximal to ileocecal junction segments (length = 10 cm) were cannulated at both ends using polypropylene tubing and ligated securely to prevent fluid loss. To wash out the intestinal contents, PBS warmed to 37 °C was circulated through the cannula at 5.0 mL/min for 4 min using an infusion pump. The cannulation tubing was removed, the segments were closed tightly and returned carefully to their original location inside the peritoneal cavity. Rats were kept on the board at 37 °C for an additional 30 min to calm biological reactions such as elevated blood glucose levels resulting from the stress imposed by surgery. […] To examine dose dependency, the final concentrations of tryptophan were adjusted to 4, 8, 16 and 32 mM. In the comparison study with three hydrophobic amino acids or metabolite of L-tryptophan, the final concentrations of L-isoleucine, L-proline, L-phenylalanine and serotonin were 32 mM. In the study examining the synergistic effect of L-arginine and L-tryptophan, the final concentration of L-arginine was fixed at 40 mM.\nas §1, with “dosing. The tuberculin syringes (1 mL, Terumo Corp., Tokyo, Japan) were heparinized by the standard procedure of coating the syringe wall with aspirated heparin and then expelling all the heparin.” for “dosing.”"}, "Caco-2 cell monolayers [9]": {"tested_on": "Caco-2 cell monolayers", "assay": "Transcellular transport assay: insulin permeation through Caco-2 monolayer", "details": "Caco-2 transwell, apical to basal, insulin 15 μM co-incubated with additive 2.4 or 16 mM, HBSS pH 7.4, 2 h, 37 °C; N=3", "protocol": "For TEER measurement, Caco-2 cells were grown in 12-well transwell plates with a 1.13 cm^2 culture area (collagen-coated polytetrafluoroethylene (PTFE) membrane with 0.4 μm pore size, Corning Inc., Corning, NY, USA). The cells were cultured to a density of 1.0 × 10^5 cells/cm^2. […] The culture medium was changed every second day and the electrical resistance was monitored by the method described below. Each well consisted of apical (top) and basal (bottom) chambers, which were separated by a collagen-coated polytetrafluoroethylene membrane with a pore size of 0.4 μm and a filter area of 1.12 cm^2.\nIn preparation for the assays, the cell membranes were allowed to equilibrate for 30 min in transport buffer; HBSS (pH 7.4) with 0.001% MC was added to the apical (0.5 mL) and basal (1.5 mL) chambers of the transwell. […] During the incubation, the Caco-2 monolayer was kept at physiological temperature (37 °C)."}}, "data": [{"molecule": "CCCCCCCCCC(=O)[O-].[Na+]", "note": "[C10, sodium caprate]", "values": [{"measurement": "Change in TEER of Caco-2 cell monolayers", "setting": "Caco-2 cell monolayers [1]; typical enhancer as positive control, concentration not given, 2 h", "result": "significant reduction in TEER"}]}, {"molecule": "N[C@@H](Cc1c[nH]c2ccccc12)C(=O)O", "note": "[L-Tryptophan, L-tryptophan]", "values": [{"measurement": "Leakage of LDH into intestinal fluid (in situ)", "setting": "rat ileal segments", "result": "negligible"}, {"measurement": "Change in TEER of Caco-2 cell monolayers", "setting": "Caco-2 cell monolayers [1]; apical, insulin 15 μM with additive 600–16,000 μM, HBSS pH 7.4, 2 h, TEER at 120 min vs initial", "result": "No change in the TEER values"}, {"measurement": "Release of LDH into the media (in vitro)", "setting": "Caco-2 cells [2]", "result": "no release of LDH"}, {"measurement": "Hypoglycemic reaction / oral absorption of insulin (blood glucose levels)", "setting": "[3]", "result": "could enhance the oral absorption of insulin"}, {"measurement": "Cell viability (WST-8)", "setting": "Caco-2 cells [4]", "result": "no decrease in cell viability"}, {"measurement": "Binding to immobilized insulin (SPR sensorgram)", "setting": "insulin; CM5 chip, analyte 2–200 μM, HBSS pH 7.4 with 0.001% MC, 25 °C, 90 s injection", "result": "do not show an increase"}]}, {"molecule": "N=C(N)NCCC[C@H](N)C(=O)O", "note": "[L-arginine]", "values": [{"measurement": "Opening of tight junctions in Caco-2 cell monolayers", "setting": "Caco-2 cell monolayers [5]", "result": "no opening of tight junctions was observed"}, {"measurement": "Tmax of insulin absorption after co-administration", "setting": "[6]", "result": "12.8 ± 0.9", "unit": "min"}, {"measurement": "Effect on the intestinal absorption of peptide drugs (GLP-1, Exendin-4)", "setting": "[7]; data not shown", "result": "had no effect on the intestinal absorption of such peptide drugs"}, {"measurement": "Binding with insulin", "setting": "insulin; data not shown", "result": "showed no binding with insulin"}]}, {"molecule": "CC[C@H](C)[C@H](N)C(=O)O", "note": "[L-isoleucine]", "values": [{"measurement": "Effect on the intestinal absorption of insulin (in words)", "setting": "[8]", "result": "no stimulatory effect on insulin absorption"}]}, {"molecule": "N[C@@H](Cc1ccccc1)C(=O)O", "note": "[L-phenylalanine]", "values": [{"measurement": "Effect on the intestinal absorption of insulin (in words)", "setting": "[8]", "result": "no stimulatory effect on insulin absorption"}]}, {"molecule": "O=C(O)[C@@H]1CCCN1", "note": "[L-proline]", "values": [{"measurement": "Effect on the intestinal absorption of insulin (in words)", "setting": "[8]", "result": "no stimulatory effect on insulin absorption"}]}, {"molecule": "NCCc1c[nH]c2ccc(O)cc12", "note": "[Serotonin, serotonin]", "values": [{"measurement": "Change in TEER of Caco-2 cell monolayers", "setting": "Caco-2 cell monolayers [1]; apical, insulin 15 μM with additive 2.4 or 16 mM, HBSS pH 7.4, 2 h", "result": "increased the TEER"}, {"measurement": "Permeation of insulin through Caco-2 monolayer", "setting": "Caco-2 cell monolayers [9]", "result": "no stimulatory effect on the permeation of insulin"}, {"measurement": "Effect on the intestinal absorption of insulin (in words)", "setting": "[8]", "result": "could enhance the intestinal absorption of insulin"}]}, {"molecule": "GLP-1", "values": [{"measurement": "AUC, −L-Tryptophan", "setting": "[7]; rat, in vivo, 1.25 mg/kg", "result": "1.35 ± 0.27", "unit": "ng·h/mL"}]}, {"molecule": "RQIKIWFQNRRMKWKK [L-penetratin]", "values": [{"measurement": "Onset of action / of insulin absorption after co-administration", "setting": "[8]; insulin 50 IU/kg co-administered with L-tryptophan 8-32 mM, L-penetratin 0.5 mM or D-tryptophan 16 and 32 mM, time after administration", "result": 15, "unit": "min"}]}]}
